Experiments:
5HT1B receptor [1] = molecular target: T1, 5HT1B receptor (Cavia porcellus, UniProt O08892); test: in-vitro autoradiographies with compound I-B; type: binding; settings: in-vitro autoradiography, Guinea pig
T1 construct: in-vitro autoradiographies and ex-vivo experiments in Guinea pig; from tissue; host or cells: guinea pig brain (external globus pallidus, ventral pallidum)

5HT1B receptor [2] = molecular target: T1, 5HT1B receptor; test: ex-vivo experiments with compound I-B; type: in vivo; settings: Guinea pig
5HT1B receptor [3] = molecular target: T2, 5HT1B receptor (Macaca mulatta, UniProt F6SFA9); test: in-vivo PET-experiments with compound I-B; settings: Rhesus monkeys
T2 construct: in-vivo PET-experiments in Rhesus monkeys; from tissue; host or cells: brain of living rhesus monkeys (PET)
T2 sequence (F6SFA9 1-390): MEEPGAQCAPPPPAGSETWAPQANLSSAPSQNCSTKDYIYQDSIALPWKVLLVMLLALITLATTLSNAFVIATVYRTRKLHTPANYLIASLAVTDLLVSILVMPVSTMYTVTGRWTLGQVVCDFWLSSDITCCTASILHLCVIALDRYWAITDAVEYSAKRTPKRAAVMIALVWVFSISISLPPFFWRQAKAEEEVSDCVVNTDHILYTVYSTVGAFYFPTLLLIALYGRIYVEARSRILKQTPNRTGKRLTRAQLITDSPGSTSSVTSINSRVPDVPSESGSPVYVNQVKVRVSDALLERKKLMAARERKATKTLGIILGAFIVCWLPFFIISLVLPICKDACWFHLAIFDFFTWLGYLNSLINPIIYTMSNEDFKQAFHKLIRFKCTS

T1 sequence (O08892 whole entry): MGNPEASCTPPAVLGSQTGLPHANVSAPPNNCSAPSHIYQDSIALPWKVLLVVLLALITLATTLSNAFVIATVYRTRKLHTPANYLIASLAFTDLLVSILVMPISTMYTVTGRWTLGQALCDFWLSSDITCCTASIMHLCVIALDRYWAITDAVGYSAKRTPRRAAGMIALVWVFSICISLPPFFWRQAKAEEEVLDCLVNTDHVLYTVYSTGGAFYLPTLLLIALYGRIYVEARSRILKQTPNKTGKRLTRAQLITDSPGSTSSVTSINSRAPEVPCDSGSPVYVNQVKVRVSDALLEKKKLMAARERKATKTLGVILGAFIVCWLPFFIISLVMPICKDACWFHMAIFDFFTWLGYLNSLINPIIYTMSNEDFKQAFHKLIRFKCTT

COC(C)(C)c1ccc(N2CC[C@@H](Cc3ccccc3N3CCN([11CH3])CC3)C2=O)cc1 [compound I-B, R-1-[4-(2-methoxy-isopropyl)-phenyl]-3-[2-(4-[^11C]methyl-piperazin-1-yl)benzyl]-pyrrolidin-2-one]
sensitivity of uptake to blocking by other 5HT1B antagonists (5HT1B receptor [1]): sensitive to blocking by other 5HT1B antagonists in a dose dependent manner | specific uptake (regional distribution) (5HT1B receptor [1]): specific uptake of compound I-B mainly in the external globus pallidus and ventral pallidum | sensitivity of uptake to blocking by other 5HT1B antagonists (5HT1B receptor [2]): sensitive to blocking by other 5HT1B antagonists in a dose dependent manner | specific uptake (regional distribution) (5HT1B receptor [2]): specific uptake of compound I-B mainly in the external globus pallidus and ventral pallidum | sensitivity of uptake to blocking by other 5HT1B antagonists (5HT1B receptor [3]): sensitive to blocking by other 5HT1B antagonists in a dose dependent manner | specific uptake (regional distribution) (5HT1B receptor [3]): specific uptake of compound I-B mainly in the external globus pallidus and ventral pallidum

Reference: patent publication US8012969B2, “11C-labeled benzyl-lactam compounds and their use as imaging agents” (GE Healthcare Limited, priority 2005, dated 2011)
